# Results reported in paper PMC9794608 (Frontiers in Veterinary Science, 2022).
# Like-named read-outs stand apart in the source and are kept apart here.
# Assay: Plasma pharmacokinetics after single and repeat oral dose, LC-MS/MS, non-compartmental analysis
# Format: in vivo, Beagle dogs
# Settings: for Sapanisertib accumulation with repeat dosing: 0.1 mg/kg p.o. QOD; for Cmax: read-out: CMAX (sapanisertib in plasma)
# Procedure: Laboratory Beagle dogs (Charles River Labs, Mattawan, MI) served as surrogates in testing compounds proposed for application in canine clinical cancer care. The animals were at least six months old and weighed 6.4–8.8 kg at the initiation of study. They had routine veterinary care and had not been used in any previous studies. The study was conducted in AAALAC-accredited animal facilities [Charles River Laboratories, Inc., Mattawan, MI; NIH Office of Laboratory Animal Welfare Assurance approval (https://olaw.nih.gov/assured/app/index.html)], under review, monitoring, and approval of the facility's Institutional Animal Care and Use Committee according to U.S. Public Health Service national guidelines and regulations for the care and use of laboratory animals. The study was not designed to incorporate Good Laboratory Practices (GLP) regulatory criteria. Animals on study were monitored daily or more frequently and body weights were recorded, while periodic specimens were obtained for laboratory analyses. Clinical pathology analyses were included for hematology, serum chemistry, coagulation, urinalysis, and chemical bioanalysis was accomplished for pharmacokinetics (PK) (Table 1, repeat dose study) (Charles River Laboratories, Mattawan, MI).
# Six male and six female beagle dogs were enrolled in a parallel, three-arm, fixed, repeat oral-dose study. […] In Group 2, two male (23001, 23002) and two female (23501, 23502) dogs were given sapanisertib alone (0.1 mg/kg) every other day (p.o., QOD). […] All dogs were dosed on study day 1 to obtain single dose PK samples, and then dosed serially days 4–20. Dogs were fasted overnight prior to dosing and fed ad libitum 2 h (hrs) following dose administration.
# Plasma samples for PK were collected at pre-dose (-7 days), then beginning day 1 following the initial dose of each study group at 1, 2, 4, 8, 24, 48, and 72 h. On day 6, plasma samples were collected pre-dose, then 1, 2, 4, 8, and 24 h post-dose. On days 10 and 15, a 2-h post-dose sample was collected. On day 20, plasma samples were drawn at pre-dose and 1, 2, 4, 8, 24, 48, and 72 h post-dose. Treatment schedule and clinical pathology specimen sampling intervals are outlined in Table 1.
# Each 50 μL aliquot of known concentration standards, quality control sample, or study sample was mixed with 200 μL of working internal standard solution (10 ng/mL in acetonitrile). The samples were vortexed and centrifuged. A 150 μL aliquot of the resulting supernatant was transferred to a clean 96-well plate, evaporated, and reconstituted with 100 μL of water/acetonitrile (40/60, v/v). An aliquot was injected onto an LC-MS/MS XBridge BEH C18 liquid chromatography system (Waters Associates, Framingham, MA) having 50 x 2.1 mm (2.5 μm particle size) column with an isocratic flow consisting of water/formic acid (100/0.1, v/v) and acetonitrile/formic acid (100/0.1, v/v) at a flow rate of 0.3000 mL/min for analysis. The analyte and internal standard were detected using an API 6500+ triple quadrupole LC-MS/MS system (AB Sciex, LLC, Framingham, MA) equipped with an ESI (TurboIonSpray®) ionization source operated in the positive ion mode.
# A non-compartmental approach to PK analysis was employed using Phoenix WinNonlin v8.3 (Certara Corp, Cary, NC) that was validated per FDA 21CFR Part 11 regulations. The maximum plasma concentration (CMAX) and the time of maximum plasma concentration (TMAX) were recorded as observed values. […] AUCINF (the AUC from time zero to infinity) was calculated by extrapolation by dividing CLAST (the last measurable drug concentration) by the rate constant of the terminal phase, λZ. This constant was determined from the slope of the terminal phase of the concentration-time curve using uniformly-weighted least-squares as the estimation procedure and acceptance criteria of (i) adjusted r^2 > 0.8, (ii) includes > 3 time points in the terminal phase occurring after the TMAX. […]
# [1] = First dose (Day 1), sapanisertib 0.1 mg/kg p.o., mean (%CV), n = 4
# [2] = canine sapanisertib only group 0.1 mg/kg versus human cancer patients receiving 4 mg oral sapanisertib
smiles,measurement,setting,value
CC(C)n1nc(-c2ccc3oc(N)nc3c2)c2c(N)ncnc21 [Sapanisertib],Sapanisertib accumulation with repeat dosing,day 1 to day 20,did not display accumulation
same,Sapanisertib accumulation with repeat dosing,"day 1 to day 20, listed as sapanisertib",not observed to significantly accumulate
same,AUCINF (sapanisertib in plasma),[1],247.5 (41%) hr^*ng/mL
same,V/F (sapanisertib),[1],3.85 (34%) L/kg
same,V/F (sapanisertib),"Steady-state (Day 20), sapanisertib 0.1 mg/kg p.o. QOD, mean (%CV), n = 4",3.97 (33%) L/kg
same,Sapanisertib plasma level at day 15,"approximately 24 h from the previous dose, Groups 2,3",minimal detectable
same,half-life,"both sexes, beagle, dog, plasma, po, 0.1 mg/kg, 0.1 mg/kg p.o., day 1 to day 20, read-out: Sapanisertib half-life (range)",4.8 to 6.8 h
same,AUC(0-inf),"both sexes, beagle, dog, plasma, po, 0.1 mg/kg, First dose (Day 1), sapanisertib 0.1 mg/kg p.o., mean (%CV), n = 4, read-out: AUCINF (sapanisertib in plasma)",248 ng·h/mL
same,half-life,"both sexes, beagle, dog, plasma, po, 0.1 mg/kg, First dose (Day 1), sapanisertib 0.1 mg/kg p.o., mean (%CV), n = 4, read-out: T1/2 (sapanisertib in plasma) (converted)",5.94 h
same,Tmax,"both sexes, beagle, dog, plasma, po, 0.1 mg/kg, First dose (Day 1), sapanisertib 0.1 mg/kg p.o., median (range), n = 4, read-out: TMAX (sapanisertib in plasma)",2 h
same,Cmax,"both sexes, beagle, dog, plasma, po, 0.1 mg/kg, Steady-state (Day 6), sapanisertib 0.1 mg/kg p.o. QOD, mean (%CV), n = 4",28.1 ng/mL
same,Cmax,"both sexes, beagle, dog, plasma, po, 0.1 mg/kg, Steady-state (Day 10), sapanisertib 0.1 mg/kg p.o. QOD, mean (%CV), n = 4",23.6 ng/mL
same,AUC,"both sexes, beagle, dog, plasma, po, 0.1 mg/kg, Steady-state (Day 20), sapanisertib 0.1 mg/kg p.o. QOD, mean (%CV), n = 4, read-out: AUCTAU (sapanisertib in plasma)",250 ng·h/mL
same,Cmax,"both sexes, beagle, dog, plasma, po, 0.1 mg/kg, Steady-state (Day 20), sapanisertib 0.1 mg/kg p.o. QOD, mean (%CV), n = 4",27.4 ng/mL
same,half-life,"both sexes, beagle, dog, plasma, po, 0.1 mg/kg, Steady-state (Day 20), sapanisertib 0.1 mg/kg p.o. QOD, mean (%CV), n = 4, read-out: T1/2 (sapanisertib in plasma) (converted)",6.28 h
same,Tmax,"both sexes, beagle, dog, plasma, po, 0.1 mg/kg, Steady-state (Day 20), sapanisertib 0.1 mg/kg p.o. QOD, median (range), n = 4, read-out: TMAX (sapanisertib in plasma)",2 h
same,Tmax,"both sexes, beagle, dog, plasma, po, 0.1 mg/kg, dogs, 0.1 mg/kg p.o., read-out: Sapanisertib Tmax on average",2 h
same,CL/F,"both sexes, beagle, dog, plasma, po, First dose (Day 1), sapanisertib 0.1 mg/kg p.o., mean (%CV), n = 4",7.83 mL/min/kg
same,Cmax,"both, beagle, dog, plasma, po, 0.1 mg/kg, First dose (Day 1), sapanisertib 0.1 mg/kg p.o., alone or with trametinib […] (see label), arithmetic mean (%CV), n = 4",26.3 ng/mL
same,"Mean animal to human exposure ratio, AUCINF",[2],1.31
same,"Mean animal to human exposure ratio, CMAX",[2],1.11
same,"Mean animal to human exposure ratio, T1/2",[2],0.91
same,Sapanisertib absorption time (range),"initial and repeat dose, 0.1 mg/kg p.o.",1 to 4 h
